Test results published in ChEMBL document CHEMBL1201862, “PubChem BioAssay data set” (2004).
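Grown in 96-well plates, cells were treated for 48 hours with each compound at five concentrations. Insufficient inhibition: endpoint recorded as highest concentration tested. Here, GI50 denotes the concentration required for 50% inhibition of growth.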 Activity calls are given as the source filed them. Cut-off read from the data, not from the text of the source: active = GI50 up to about 1.1 µM and inactive = higher.

How the values were obtained:
Assay in all cases: NCI anticancer screen, dose series, 48 h
[1] = system: UO-31
[2] = system: CCRF-CEM
[3] = system: SK-MEL-28
[4] = system: SF-539
[5] = system: SF-268
[6] = system: NCI-H522
[7] = system: HCT-15
[8] = system: RXF 393
[9] = system: IGROV-1
[10] = system: SNB-19
[11] = system: U-251
[12] = system: OVCAR-3
[13] = system: HL-60
[14] = system: HCT-116
[15] = system: SW-620
[16] = system: A549
[17] = system: NCI-H460
[18] = system: UACC-62
[19] = system: HCC 2998
[20] = system: SF-295

Row | Structure (SMILES) | GI50 [1] | GI50 [2] | GI50 [3] | GI50 [4] | GI50 [5] | GI50 [6] | GI50 [7] | GI50 [8] | GI50 [9] | GI50 [10] | GI50 [11] | GI50 [12] | GI50 [13] | GI50 [14] | GI50 [15] | GI50 [16] | GI50 [17] | GI50 [18] | GI50 [19] | GI50 [20]
1 | O=C1c2ccccc2-c2nnc(-c3ccc([N+](=O)[O-])cc3)cc21 | > 10 µM (inactive) | > 10 µM (inactive) | > 10 µM (inactive) | > 10 µM (inactive) | > 10 µM (inactive) | > 10 µM (inactive) | > 10 µM | > 10 µM (inactive) | > 10 µM (inactive) | > 10 µM (inactive) | > 10 µM (inactive) | > 10 µM (inactive) | > 10 µM (inactive) | > 10 µM (inactive) | > 10 µM (inactive) | > 10 µM (inactive) | > 10 µM (inactive) | > 10 µM (inactive) | > 10 µM (inactive) | > 10 µM (inactive)
2 | O=C(O)c1ccccc1C(=O)c1ccco1 | > 100 µM (inactive) | > 100 µM (inactive) | > 100 µM (inactive) | > 100 µM (inactive) | > 100 µM (inactive) | > 100 µM (inactive) | > 100 µM | > 100 µM (inactive) | > 100 µM (inactive) | > 100 µM (inactive) | > 100 µM (inactive) | > 100 µM (inactive) | > 100 µM (inactive) | > 100 µM (inactive) | > 100 µM (inactive) | > 100 µM (inactive) | > 100 µM (inactive) | > 100 µM (inactive) | > 100 µM (inactive) | > 100 µM (inactive)
3 | Cc1c(N=NN(C)C)cc[n+]([O-])c1C | > 100 µM (inactive) | > 100 µM (inactive) | > 100 µM (inactive) | > 100 µM (inactive) | > 100 µM (inactive) | > 100 µM (inactive) | > 100 µM | > 100 µM (inactive) | > 100 µM (inactive) | > 100 µM (inactive) | > 100 µM (inactive) | > 100 µM (inactive) | > 100 µM (inactive) | > 100 µM (inactive) | > 100 µM (inactive) | > 100 µM (inactive) | > 100 µM (inactive) | > 100 µM (inactive) | > 100 µM (inactive) | > 100 µM (inactive)
4 | COc1cc(C)cc2c1C(=O)C(NC(C)=O)=CC2=O | > 100 µM (inactive) | 34.3 µM (inactive) | > 100 µM (inactive) | > 100 µM (inactive) | > 100 µM (inactive) | > 100 µM (inactive) | > 100 µM | > 100 µM (inactive) | > 100 µM (inactive) | > 100 µM (inactive) | > 100 µM (inactive) | > 100 µM (inactive) | 23.3 µM (inactive) | > 100 µM (inactive) | > 100 µM (inactive) | > 100 µM (inactive) | > 100 µM (inactive) | 58.7 µM (inactive) | > 100 µM (inactive) | > 100 µM (inactive)
5 | Oc1ccccc1-c1nn2c(CCCCCCCCc3nnc4sc(-c5ccccc5O)nn34)nnc2s1 | 4.11 µM (inactive) | 5.42 µM (inactive) | 24.6 µM (inactive) | 8.53 µM (inactive) | 19 µM (inactive) | 13.9 µM (inactive) | 7.6 µM | 10.2 µM (inactive) | 4.66 µM (inactive) | 23.7 µM (inactive) | 12.9 µM (inactive) | 14.4 µM (inactive) | 1.03 µM (active) | 10.5 µM (inactive) | 27.9 µM (inactive) | 6 µM (inactive) | 8.05 µM (inactive) | 7.06 µM (inactive) | 27.2 µM (inactive) | 9.98 µM (inactive)
6 | C=C1OC(=O)[C@]2([C@@H](/C=C/C)C=CC(=O)[C@H]2O)[C@@H]1O | > 100 µM (inactive) | > 100 µM (inactive) | > 100 µM (inactive) | > 100 µM (inactive) | > 100 µM (inactive) | > 100 µM (inactive) | > 100 µM | > 100 µM (inactive) | > 100 µM (inactive) | > 100 µM (inactive) | > 100 µM (inactive) | > 100 µM (inactive) | > 100 µM (inactive) | > 100 µM (inactive) | > 100 µM (inactive) | > 100 µM (inactive) | > 100 µM (inactive) | > 100 µM (inactive) | > 100 µM (inactive) | > 100 µM (inactive)
7 | O=c1ccn(CC2(CO)CC(Cc3ccccc3)C2)c(=O)[nH]1 (stereo not given) | > 100 µM (inactive) | > 100 µM (inactive) | > 100 µM (inactive) | > 100 µM (inactive) | > 100 µM (inactive) | > 100 µM (inactive) | > 100 µM | > 100 µM (inactive) | > 100 µM (inactive) |  | > 100 µM (inactive) | > 100 µM (inactive) | > 100 µM (inactive) | > 100 µM (inactive) | > 100 µM (inactive) | > 100 µM (inactive) | > 100 µM (inactive) | > 100 µM (inactive) | > 100 µM (inactive) | > 100 µM (inactive)
8 | CCCCOP(C)(=O)C(NC(=O)OCC)(C(F)(F)F)C(F)(F)F (stereo not given) | > 100 µM (inactive) | > 100 µM (inactive) | > 100 µM (inactive) | > 100 µM (inactive) | > 100 µM (inactive) | 65.8 µM (inactive) | > 100 µM | > 100 µM (inactive) | > 100 µM (inactive) | > 100 µM (inactive) | > 100 µM (inactive) | > 100 µM (inactive) | > 100 µM (inactive) | > 100 µM (inactive) | > 100 µM (inactive) | > 100 µM (inactive) | > 100 µM (inactive) | > 100 µM (inactive) | > 100 µM (inactive) | > 100 µM (inactive)
9 | CCCNC(/C=C/[Si](C)(C)C)CO.CCCNCC(O)/C=C/[Si](C)(C)C (stereo not given) | > 100 µM (inactive) | > 100 µM (inactive) | > 100 µM (inactive) | > 100 µM (inactive) |  | > 100 µM (inactive) | > 100 µM | 95.7 µM (inactive) | > 100 µM (inactive) | > 100 µM (inactive) | > 100 µM (inactive) | > 100 µM (inactive) | > 100 µM (inactive) | > 100 µM (inactive) | > 100 µM (inactive) | > 100 µM (inactive) | > 100 µM (inactive) | > 100 µM (inactive) | > 100 µM (inactive) | > 100 µM (inactive)
10 | O=C1C(Cl)=C(N2CCC[C@H]2CO)C(=O)c2c(O)ccc(O)c21 | 2.24 µM (inactive) | 0.22 µM (active) | 1.55 µM (inactive) | > 10 µM (inactive) | 3.74 µM (inactive) | 0.104 µM (active) | 1.95 µM | 1.99 µM (inactive) | 4.95 µM (inactive) | > 10 µM (inactive) | > 10 µM (inactive) | 2.56 µM (inactive) | 0.0724 µM (active) | 1.64 µM (inactive) | 1.7 µM (inactive) | 8.2 µM (inactive) | 8.63 µM (inactive) | 2.04 µM (inactive) | 4.55 µM (inactive) | > 10 µM (inactive)
11 | CC(=O)O[C@H]1[C@@H]2OC(=O)[C@@](O)(CC3CCCO3)[C@@H]2CC(=O)[C@](C)(O)CC/C=C(\C)CCC[C@@H]1C (stereo not given in full) | 61.8 µM (inactive) | 22.7 µM (inactive) | 20.3 µM (inactive) | 19.1 µM (inactive) | > 100 µM (inactive) | 25.8 µM (inactive) | 34.3 µM | 20 µM (inactive) | 46.5 µM (inactive) | > 100 µM (inactive) | 69.8 µM (inactive) | 63.2 µM (inactive) | 21.5 µM (inactive) |  | 22.5 µM (inactive) | 40.6 µM (inactive) | > 100 µM (inactive) | 67.3 µM (inactive) | > 100 µM (inactive) | 77.3 µM (inactive)
12 | O=C1Cc2c(-c3ccccc3)cc(-c3cccc(Cl)c3)nc2-c2ccccc2N1 | 3.14 µM (inactive) | 12.1 µM (inactive) | 3.9 µM (inactive) | 6.34 µM (inactive) | 2.73 µM (inactive) | 1.05 µM (active) | 3.42 µM | 2.15 µM (inactive) | 1.2 µM (inactive) | 1.64 µM (inactive) | 1.75 µM (inactive) | 2.1 µM (inactive) | 38.7 µM (inactive) | 1.6 µM (inactive) | 3.91 µM (inactive) | 1.82 µM (inactive) | 1.2 µM (inactive) | 3.03 µM (inactive) | 2.09 µM (inactive) | 3.56 µM (inactive)
13 | CN(CCCCCl)P(=O)(OCC1=CC(=O)c2ccccc2C1=O)OC[C@H]1O[C@@H](n2cc(F)c(=O)[nH]c2=O)C[C@@H]1O (stereo not given in full) | < 0.01 µM (active) | < 0.01 µM (active) | 4.11 µM (inactive) | < 0.0244 µM (active) | < 0.01 µM (active) | 0.239 µM (active) | 3.66 µM | 0.0625 µM (active) | 0.124 µM (active) |  |  | 0.109 µM (active) | 0.69 µM (active) | 0.0693 µM (active) | 3.51 µM (inactive) | < 0.01 µM (active) | < 0.01 µM (active) | 0.0399 µM (active) | < 0.01 µM (active) | < 0.0175 µM (active)
14 | Cc1ccc2c(O)cc(-c3cc(C)sc3C)nc2n1 | 4.29 µM (inactive) | 2.53 µM (inactive) | 5.53 µM (inactive) | 2.3 µM (inactive) | 6.04 µM (inactive) | 2.07 µM (inactive) | 1.46 µM | 2.81 µM (inactive) | 3.36 µM (inactive) | 3.66 µM (inactive) | 3.69 µM (inactive) | 3.5 µM (inactive) | 1.53 µM (inactive) | 3.84 µM (inactive) | 1.67 µM (inactive) | 3.94 µM (inactive) | 4.21 µM (inactive) | 4.88 µM (inactive) | 4.05 µM (inactive) | 1.94 µM (inactive)
